Reference: patent US20090082266A1, “CONJUGATE OF WATER-SOLUBLE HYALURONIC ACID MODIFICATION PRODUCT WITH GLP-A ANALOGUE” (priority 2005, published 2009)

Tests used:
[1] = tested on: BKS. Cg −+Lepr^db/+Lepr^db/Jcl mice; assay: Oral glucose tolerance test, subcutaneous administration (Example 6-5); type: in vivo; conditions: 3000 μg/kg sc, AUC up to 2 hours, mean
Procedure: After 8 weeks old male BKS. Cg −+Lepr^db/+Lepr^db/Jcl mice (Japan CLEA Co. Ltd.) were fasted overnight to 24 hours, the HA-GLP-1 analogue 2 conjugate solution, which was obtained in Example 6-2 and diluted with solvent Z (at a dose as peptide, 300 μg/kg), or solvent Z was subcutaneously administered to the mice. After 6, 24 or 48 hours of the subcutaneous administration, 50% glucose solution (Otsuka Pharamaceutical Co. Ltd.) was orally administered at a dose of 3 g glucose/kg. […] After 2 minutes or 4 hours and 2 minutes of the subcutaneous administration (in the case of solvent Z, after 1 or 5 hours) 50% glucose solution was orally administered at a dose of 3 g glucose/kg. Tests were carried out on groups consisting of 6 mice per group.
(§1) Before the glucose administration (0 hour), 0.5, 1 and 2 hours after the administration, blood was collected from the tail, and the blood glucose level was measured by an enzymatic assay (hexokinase method; Reagent, Autosera S GLU (Daiichi Pure Chemicals Co. Ltd.); Instrument, BioMajesty JCA-BM1250 (JEOL Co. Ltd.)).
The blood glucose lowering rate was calculated according to the formula described in Example 5-4.

[2] = in vivo, iv; cited from earlier work
[3] = tested on: BKS. Cg −+Lepr^db/+Lepr^db/Jcl mice; assay: Oral glucose tolerance test, intravenous administration (Example 5-4); type: in vivo; conditions: glucose 3 g/kg orally 1 minute later, AUC up to 4 hours, mean
Procedure: After 8 weeks old male BKS. Cg −+Lepr^db/+Lepr^db/Jcl mice (Japan CLEA Co. Ltd.) were fasted overnight, the HA-GLP-1 analogue 1 conjugate solution, which was obtained in Example 5-2 and diluted with solvent Z (at doses as peptide, 1.5 μg/kg, 15 μg/kg or 150 μg/kg), or solvent Z was intravenously administered to the mice. After 1 minute of the intravenous administration, 50% glucose solution (Otsuka Pharamaceutical Co. Ltd.) was orally administered at a dose of 3 g glucose/kg. […] After 1 minute of the intravenous administration, 50% glucose solution was orally administered at a dose of 3 g glucose/kg. Tests were carried out on groups consisting of 6 mice per group.
as §1, with “0.5, 1, 2” for “0.5, 1”, “and 4” for “and 2”
The blood glucose lowering rate was calculated according to the following formula.

Q: Which “Blood glucose lowering rate (%)” value ([1]; glucose 3 g/kg orally 2 Minutes after administration) does the source give for “GLP-1 analogue 0: variant of native GLP-1 (human, 7-37) in which the second (position 8) alanine was converted to glycine (HGEGTFTSDVSSYLEGQAAKEFIAWLVKGRG; Glucagon-like peptide 1(7-37); UniProt P01275 98-128, looked up, variant A8G)” here?
A: 102%

Q: And the “Blood glucose lowering rate (%)” value ([1]; glucose 3 g/kg orally 4 Hour 2 Minutes after administration)?
A: 18%

Q: What about the half life [2] of the same substance?
A: 1 to 5 min

Q: With “GLP-1: native GLP-1 (Human, 7-37; Peptide Institute, Inc.)” as the substance, how does the “Blood glucose lowering rate (%)” value ([3]; 150 μg/kg iv (conjugate: as peptide)) read?
A: 15%

Q: What about the “Blood glucose lowering rate (%)” value ([3]; 1500 μg/kg iv) of the same substance?
A: 60%
